Results published in US4863898A, “Amino acid chelated compositions for delivery to specific biological tissue sites” (priority 1986, dated 1989).
Like-named read-outs stand apart in the source and are kept apart here.

Experiments:
[1] = female rats, intravenous 0.06 mg Ca, after two hours
Experimental: Six female rats, weighing 250 gms.±10 gms., were divided into two groups. All rats were anethetized with 0.15 mls sodium phenobarbital USP. […] To the other three, the same amount of calcium was administered in the form a calcium chloride.
After two hours, all of he rats were sacrificed and the hypothalamus was removed and read for radioactivity.

[2] = stability constant of amino acid chelate; type: physicochemical
Excerpt: The determination of stability constants of amino acid chelates is well documented in U.S. Pat. No. 4,167,564 and the means by which amino acid chelates may be formulated to provide optimal stability constants within the required ranges are disclosed in U.S. Pat. Nos. 4,176,564 and 4,172,072.

[3] = radioactive zinc in tissues after injection into the jugular vein (Example IV); type: in vivo; conditions: rats, two hours post injection, group mean
Experimental: The method of Example III was again utilized except that the manganese was replaced by zinc. […] The same dosage as in Example III was administered. Only six rats were utilized for this experiment, three in each group, and they were sacrificed two hours post injection into the jugular vein. Six tissues, i.e. brain, skeletal muscle, liver, hypothalamus, pituitary and uterus were analyzed for radioactive zinc with the following mean results for each group reported in terms of cc/min/mg of tissue.

[4] = radioactive zinc in male sex tissues after intravenous dosage (Example II); conditions: rats, intravenous 0.06 mg zinc, 24 hours post treatment, group average
Experimental: Three groups of rats, six in each group, weighing 250 gms±10 gms. were given an intravenous dosage, of 0.06 mg zinc containing 10 microcuries of radioactive zinc.
Each rat was sacrificed 24 hours post treatment and the testes, epididymis, and seminal visicle of each were exposed, excised and a determination was made of the amount of radioactive zinc in each.

[5] = set-up: species or system rats; conditions: rat, in vivo
Excerpt: Leucine was used as the ligand and zinc as the metal. Composition A is therefore a mixture, or at best a complex consisting of one mole of leucine (mole weight 131.17) and one more of zinc chloride. […] Composition B consisted of two moles of leucine admixed with one mole of zinc chloride to form a mixture. […] Composition A contained leucine equivalent to 10 microliters of 0.76M. leucine and was adjusted to pH 9 with 20 microliters of 0.05 N NaOH. Composition B contained leucine equivalent to 20 microliters of 0.76M. leucine containing 20 microliters distilled water in lieu of pH adjustment. The pH of this solution was about 3. Composition C contained the same ingredients as Composition B except in chelated form and the pH was adjusted to 9 with 20 microliters of 0.13M Na2 CO3. The procedure of Example lI was fo lowed using three rats in each group. Upon sacrificing, blood was drawn and certain tissues excised to determine the amount of radioactive zinc which had migrated to the blood and tissues two hours post injection.

Compound: [Ca+2].[Cl-].[Cl-] [inorganic calcium, calcium chloride]
- radioactivity in hypothalamus, mean corrected counts per minute per milligram of tissue [1]: 67.1±8.4 cc/min/mg

Compound: NCC(=O)[O-].NCC(=O)[O-].[Zn+2] [GROUP II, zinc-glycine chelate]
- stability constant [2]: 10^7

Compound: [Cl-].[Cl-].[Zn+2] [Zinc Chloride, zinc chloride]
- radioactive zinc in Brain [3]: 5.1 cc/min/mg
- radioactive zinc in Hypothalamus [3]: 3.0 cc/min/mg
- radioactive zinc in Liver [3]: 94.2 cc/min/mg
- radioactive zinc in Pituitary [3]: 17.0 cc/min/mg
- radioactive zinc in Skeletal Muscle [3]: 5.2 cc/min/mg
- radioactive zinc in Uterus [3]: 14.0 cc/min/mg
- radioactive zinc in Epididymis [4]: Negligible
- radioactive zinc in Seminal Vesicle [4]: Negligible
- radioactive zinc in Testes [4]: Negligible

Compound: zinc-arginine chelate [GROUP I]
- stability constant [2]: 10^7

Compound: CC(C)C[C@H](N)C(=O)[O-].CC(C)C[C@H](N)C(=O)[O-].[Zn+2] [Comp. C, zinc-leucine amino acid chelate]
- radioactive zinc in Blood [5]: 1.64 cc/min/mg
- radioactive zinc in Heart [5]: 6.32 cc/min/mg
- radioactive zinc in Kidney [5]: 8.55 cc/min/mg
- radioactive zinc in Liver [5]: 8.65 cc/min/mg
- radioactive zinc in Muscle [5]: 3.88 cc/min/mg
- radioactive zinc, Total of blood and tissues [5]: 31.45 cc/min/mg
